PubChem BioAssay (NCI)
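Step 1: Grow cells in 96-well plates. Step 2: Expose to compound for 48 hours at 5 concentrations. Step 3: Interpolate endpoints linearly; if unreached, use highest concentration. Definition used: TGI = concentration required for complete inhibition of growth.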

Columns and labels:
Assay in all cases: growth of human tumour cells (NCI), 48 h
COLO 205 colon = tested on: COLO 205 colon
HL-60(TB) leukemia = tested on: HL-60(TB) leukemia
U251 CNS = tested on: U251 CNS
IGROV1 ovarian = tested on: IGROV1 ovarian
SNB-19 CNS = tested on: SNB-19 CNS
M14 melanoma = tested on: M14 melanoma
NCI-H23 lung = tested on: NCI-H23 lung
UACC-62 melanoma = tested on: UACC-62 melanoma
SF-295 CNS = tested on: SF-295 CNS
HCT-15 colon = tested on: HCT-15 colon
SR leukemia = tested on: SR leukemia
HS 578T breast = tested on: HS 578T breast
MCF7 breast = tested on: MCF7 breast
SK-MEL-2 melanoma = tested on: SK-MEL-2 melanoma
TK-10 renal = tested on: TK-10 renal
OVCAR-8 ovarian = tested on: OVCAR-8 ovarian
OVCAR-5 ovarian = tested on: OVCAR-5 ovarian
NCI-H226 lung = tested on: NCI-H226 lung
DU-145 prostate = tested on: DU-145 prostate
T-47D breast = tested on: T-47D breast
CCRF-CEM leukemia = tested on: CCRF-CEM leukemia
KM12 colon = tested on: KM12 colon
RPMI-8226 leukemia = tested on: RPMI-8226 leukemia
HT29 colon = tested on: HT29 colon
OVCAR-4 ovarian = tested on: OVCAR-4 ovarian
MDA-MB-435 = tested on: MDA-MB-435
LOX IMVI melanoma = tested on: LOX IMVI melanoma
SK-OV-3 ovarian = tested on: SK-OV-3 ovarian
786-0 renal = tested on: 786-0 renal
MDA-MB-231 breast = tested on: MDA-MB-231 breast
HCC-2998 colon = tested on: HCC-2998 colon
MOLT-4 leukemia = tested on: MOLT-4 leukemia
SF-268 CNS = tested on: SF-268 CNS
NCI/ADR-RES ovarian = tested on: NCI/ADR-RES ovarian
OVCAR-3 ovarian = tested on: OVCAR-3 ovarian
A549 NSCLC = tested on: A549 NSCLC
MALME-3M melanoma = tested on: MALME-3M melanoma
A498 renal = tested on: A498 renal
UACC-257 melanoma = tested on: UACC-257 melanoma
BT-549 breast = tested on: BT-549 breast
SN12C renal = tested on: SN12C renal
NCI-H522 lung = tested on: NCI-H522 lung
MDA-N = tested on: MDA-N
NCI-H460 lung = tested on: NCI-H460 lung
HOP-92 NSCLC = tested on: HOP-92 NSCLC
SK-MEL-5 melanoma = tested on: SK-MEL-5 melanoma
CAKI-1 renal = tested on: CAKI-1 renal
SK-MEL-28 melanoma = tested on: SK-MEL-28 melanoma
HCT-116 colon = tested on: HCT-116 colon
UO-31 renal = tested on: UO-31 renal
SF-539 CNS = tested on: SF-539 CNS
SNB-75 CNS = tested on: SNB-75 CNS
HOP-62 NSCLC = tested on: HOP-62 NSCLC
EKVX NSCLC = tested on: EKVX NSCLC
PC-3 prostate = tested on: PC-3 prostate
SW-620 colon = tested on: SW-620 colon
ACHN renal = tested on: ACHN renal
M19-MEL melanoma = tested on: M19-MEL melanoma
DLD-1 colon = tested on: DLD-1 colon
DMS 114 small cell lung = tested on: DMS 114 small cell lung
K-562 leukemia = tested on: K-562 leukemia
DMS 273 small cell lung = tested on: DMS 273 small cell lung

CCOc1cc(C=Nc2ccc(Oc3ccc(Cl)cc3)c(Cl)c2)ccc1O
TGI (COLO 205 colon): 44.6 µM | TGI (HL-60(TB) leukemia): 57.4 µM | TGI (U251 CNS): 44.4 µM | TGI (IGROV1 ovarian): 60.6 µM | TGI (SNB-19 CNS): 62.1 µM | TGI (M14 melanoma): 77.6 µM | TGI (NCI-H23 lung): 45.6 µM | TGI (UACC-62 melanoma): 50.9 µM | TGI (SF-295 CNS): 38.8 µM | TGI (HCT-15 colon): 47.3 µM | TGI (SR leukemia): 57 µM | TGI (HS 578T breast): 45.4 µM | TGI (MCF7 breast): > 100 µM | TGI (SK-MEL-2 melanoma): 56.4 µM | TGI (TK-10 renal): > 100 µM | TGI (OVCAR-8 ovarian): 65.4 µM | TGI (OVCAR-5 ovarian): 79.7 µM | TGI (NCI-H226 lung): 90.2 µM | TGI (DU-145 prostate): > 100 µM | TGI (T-47D breast): > 100 µM | TGI (CCRF-CEM leukemia): 50.8 µM | TGI (KM12 colon): 39 µM | TGI (RPMI-8226 leukemia): 82.8 µM | TGI (HT29 colon): 46.6 µM | TGI (OVCAR-4 ovarian): 80.4 µM | TGI (MDA-MB-435): > 100 µM | TGI (LOX IMVI melanoma): 39.9 µM | TGI (SK-OV-3 ovarian): 58.3 µM | TGI (786-0 renal): 34 µM | TGI (MDA-MB-231 breast): 42.1 µM | TGI (HCC-2998 colon): 43.4 µM | TGI (MOLT-4 leukemia): 67.3 µM | TGI (SF-268 CNS): 32 µM | TGI (NCI/ADR-RES ovarian): 52.9 µM | TGI (OVCAR-3 ovarian): 85.7 µM | TGI (A549 NSCLC): > 100 µM | TGI (MALME-3M melanoma): 52.6 µM | TGI (A498 renal): 36.6 µM | TGI (UACC-257 melanoma): 80.8 µM | TGI (BT-549 breast): 52 µM | TGI (SN12C renal): 38.8 µM | TGI (NCI-H522 lung): 31.9 µM | TGI (MDA-N): 61.7 µM | TGI (NCI-H460 lung): 43.2 µM | TGI (HOP-92 NSCLC): 39.6 µM | TGI (SK-MEL-5 melanoma): 52.9 µM | TGI (CAKI-1 renal): 59.4 µM | TGI (SK-MEL-28 melanoma): 63.1 µM | TGI (HCT-116 colon): 37.8 µM | TGI (UO-31 renal): 30.3 µM | TGI (SF-539 CNS): 54.7 µM | TGI (SNB-75 CNS): 45.7 µM | TGI (HOP-62 NSCLC): 45.6 µM | TGI (EKVX NSCLC): 41.3 µM | TGI (PC-3 prostate): 88.7 µM | TGI (SW-620 colon): > 100 µM | TGI (ACHN renal): > 100 µM

COc1ccc(CNc2cnc3cc(N)ccc3n2)cc1OC
TGI (COLO 205 colon): > 100 µM | TGI (HL-60(TB) leukemia): > 100 µM | TGI (SNB-19 CNS): > 100 µM | TGI (M19-MEL melanoma): > 100 µM | TGI (M14 melanoma): > 100 µM | TGI (SF-295 CNS): > 100 µM | TGI (HCT-15 colon): > 100 µM | TGI (SR leukemia): > 100 µM | TGI (SK-MEL-2 melanoma): > 100 µM | TGI (TK-10 renal): > 100 µM | TGI (OVCAR-8 ovarian): > 100 µM | TGI (DLD-1 colon): > 100 µM | TGI (NCI-H226 lung): > 100 µM | TGI (CCRF-CEM leukemia): > 100 µM | TGI (KM12 colon): > 100 µM | TGI (RPMI-8226 leukemia): > 100 µM | TGI (HT29 colon): > 100 µM | TGI (OVCAR-4 ovarian): > 100 µM | TGI (LOX IMVI melanoma): > 100 µM | TGI (786-0 renal): > 100 µM | TGI (DMS 114 small cell lung): > 100 µM | TGI (HCC-2998 colon): > 100 µM | TGI (MOLT-4 leukemia): > 100 µM | TGI (SF-268 CNS): > 100 µM | TGI (OVCAR-3 ovarian): > 100 µM | TGI (A549 NSCLC): > 100 µM | TGI (MALME-3M melanoma): > 100 µM | TGI (UACC-257 melanoma): > 100 µM | TGI (SN12C renal): > 100 µM | TGI (NCI-H522 lung): > 100 µM | TGI (NCI-H460 lung): > 100 µM | TGI (K-562 leukemia): > 100 µM | TGI (SK-MEL-5 melanoma): > 100 µM | TGI (CAKI-1 renal): > 100 µM | TGI (SK-MEL-28 melanoma): > 100 µM | TGI (HCT-116 colon): > 100 µM | TGI (DMS 273 small cell lung): > 100 µM | TGI (UO-31 renal): > 100 µM | TGI (SF-539 CNS): > 100 µM | TGI (SNB-75 CNS): > 100 µM | TGI (HOP-62 NSCLC): > 100 µM | TGI (EKVX NSCLC): > 100 µM | TGI (SW-620 colon): > 100 µM | TGI (ACHN renal): > 100 µM
